This note sets out measurements from patent US11299487B2, “Compounds and compositions as modulators of TLR signaling” (Neuropore Therapies, Inc., priority 2019, dated 2022).

What all share (type): cell-based
One assay deals with T1, human TLR9 (Homo sapiens, UniProt Q9NR96).
T1 construct: host or cells: HEK-Blue hTLR9 (HEK-293)
T1 sequence (Q9NR96 26-1032): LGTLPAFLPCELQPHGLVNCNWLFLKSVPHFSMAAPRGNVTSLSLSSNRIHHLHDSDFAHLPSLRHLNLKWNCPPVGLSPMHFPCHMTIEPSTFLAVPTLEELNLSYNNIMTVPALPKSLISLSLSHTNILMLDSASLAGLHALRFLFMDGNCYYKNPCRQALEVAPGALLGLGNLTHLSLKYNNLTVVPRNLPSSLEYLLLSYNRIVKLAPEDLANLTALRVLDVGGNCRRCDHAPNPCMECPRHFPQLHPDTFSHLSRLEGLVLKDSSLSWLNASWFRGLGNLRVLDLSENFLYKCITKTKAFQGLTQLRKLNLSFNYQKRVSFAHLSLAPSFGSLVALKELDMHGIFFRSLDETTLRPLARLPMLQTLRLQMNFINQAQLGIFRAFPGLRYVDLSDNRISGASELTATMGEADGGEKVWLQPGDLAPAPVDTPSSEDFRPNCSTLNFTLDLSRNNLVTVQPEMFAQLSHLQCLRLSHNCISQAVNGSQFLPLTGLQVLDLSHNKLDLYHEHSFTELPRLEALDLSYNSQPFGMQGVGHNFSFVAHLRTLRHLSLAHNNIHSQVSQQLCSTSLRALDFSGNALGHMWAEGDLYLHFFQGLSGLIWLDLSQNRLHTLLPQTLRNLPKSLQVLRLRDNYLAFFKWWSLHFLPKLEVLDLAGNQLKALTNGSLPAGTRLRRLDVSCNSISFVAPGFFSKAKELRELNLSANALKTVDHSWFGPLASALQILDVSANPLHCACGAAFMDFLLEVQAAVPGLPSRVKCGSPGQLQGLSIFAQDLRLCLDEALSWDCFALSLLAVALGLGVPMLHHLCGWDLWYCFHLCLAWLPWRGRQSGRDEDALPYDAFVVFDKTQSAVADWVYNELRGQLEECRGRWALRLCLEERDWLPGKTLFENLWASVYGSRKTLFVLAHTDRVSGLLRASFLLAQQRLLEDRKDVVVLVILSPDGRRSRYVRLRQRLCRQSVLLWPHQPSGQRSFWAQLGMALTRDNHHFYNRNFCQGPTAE
The assay can be described thus: HEK-Blue hTLR9 assay (SEAP reporter) with agonist ODN 2006. As to conditions: Table A; HEK-Blue hTLR9 cells, ~3×EC50 ODN 2006, 18 h; exact values 8-point dilutions, approximate (~ or <) 4-point dilutions; read-out: ~IC50 (μM) with ODN2006. The method, then: Synthetic ODNs (ODN 2006 (ODN7909), class B CpG oligonucleotide, TLR9 agonist) was obtained from InvivoGen and was dissolved in endotoxin-free water to a concentration 500 μM, vortexed until complete solubilization, and stored in aliquots at −20° C. Prior to addition to cells, an aliquot of the dissolved ligand was vortexed shortly and then was diluted in medium to 50 μM. The EC50 of the agonist for each assay run was determined by using 3-fold dilutions from the starting concentration 10 μM.
Test compounds were solubilized fresh to 10-20 mM stocks in DMSO and sonicated for 5-10 minutes in a water bath sonicator. Serial dilutions were prepared in DMSO, and then diluted in medium. The final concentration of DMSO used in the assay was 1%.
HEK-Blue hTLR9 reporter cells (InvivoGen) are HEK-293 cells stably expressing both the human TLR9 gene and a secreted embryonic alkaline phosphatase (SEAP) reporter construct downstream of NFκB promotor sites. HEK-Blue hTLR9 cells were cultured according to manufacturer's protocol using Dulbecco's Modified Eagle Medium (DMEM; Gibco) containing 1× GlutaMax (Gibco), 10% heat-inactivated Fetal Bovine Serum (Gibco), Pen-Strep (50 U/mL penicillin, 50 μg/mL streptomycin, Gibco), 100 μg/mL Normocin (InvivoGen), and the selective antibiotics, 10 μg/mL Blasticidin (InvivoGen), and 100 μg/mL Zeocin (InvivoGen). Quanti-Blue reagent (InvivoGen) for detection and quantification of secreted alkaline phosphatase was dissolved in 100 mL of endotoxin-free water, warmed to 37° C. for 30 minutes and then filtered using a 0.2 μm membrane.
On day 1, 50 μL of each test compound dilution in duplicates or a vehicle control was added to each well of a 96-well plate followed by addition of 150 μL of HEK-Blue hTLR9 cell suspension (1×10^5 cells/well) and incubated at 37° C./5% CO2 for 2 h. Next, 50 μL of an approximate 3×EC50 concentration of TLR9 agonist, ODN 2006, was added to the wells containing test compounds or the vehicle control. The plates were then incubated at 37° C./5% CO2 for 18 h. For each assay run, vehicle-treated HEK-Blue hTLR9 cells were treated with serial dilutions of agonist to determine EC50 values for the respective run.
On day 2, secreted alkaline phosphatase (SEAP) activity was detected in cell culture supernatants. In brief, 30 μL was collected from each well and transferred to a 96-well plate. Next, 200 μL of Quanti-Blue detection reagent was added to each well. Plates were incubated at 37° C. for 60 min. and SEAP activity was assessed by spectrophotometer OD reading at 655 nm. Table A and Table B show the activities of the compounds tested in HEK-Blue hTLR9 cells against ODN 2006. The activities of the compounds against ODN 2006 are presented as IC50 values which were defined as concentrations of the compounds where percent inhibition of the signal induced by agonist is equal to 50. Exact IC50 values were calculated based on 8-point dilutions for each compound. Approximate IC50 values (˜ or <) were calculated based on 4-point dilutions for each compound.

Assay [1] addresses T2, human TLR2 (Homo sapiens, UniProt O60603).
T2 construct: host or cells: HEK-Blue hTLR2 (HEK-293)
The assay can be described thus: HEK-Blue hTLR2 antagonism assay (SEAP reporter) with agonist Pam3CSK4 (TLR1/2 agonist). Particulars: Table A; HEK-Blue hTLR2 cells, ~3×EC50 Pam3CSK4, 18 h, SEAP OD 655 nm, 8-point dilutions.

Assay [2] addresses T2, human TLR2. The assay can be described thus: HEK-Blue hTLR2 antagonism assay (SEAP reporter) with agonist Pam2CSK4 (TLR2/6 agonist). Particulars: Table A; HEK-Blue hTLR2 cells, ~3×EC50 Pam2CSK4, 18 h, SEAP OD 655 nm, 8-point dilutions.

Each structure is given as a SMILES string. Bounds are passed on as bounds.

T2 sequence (O60603 21-784): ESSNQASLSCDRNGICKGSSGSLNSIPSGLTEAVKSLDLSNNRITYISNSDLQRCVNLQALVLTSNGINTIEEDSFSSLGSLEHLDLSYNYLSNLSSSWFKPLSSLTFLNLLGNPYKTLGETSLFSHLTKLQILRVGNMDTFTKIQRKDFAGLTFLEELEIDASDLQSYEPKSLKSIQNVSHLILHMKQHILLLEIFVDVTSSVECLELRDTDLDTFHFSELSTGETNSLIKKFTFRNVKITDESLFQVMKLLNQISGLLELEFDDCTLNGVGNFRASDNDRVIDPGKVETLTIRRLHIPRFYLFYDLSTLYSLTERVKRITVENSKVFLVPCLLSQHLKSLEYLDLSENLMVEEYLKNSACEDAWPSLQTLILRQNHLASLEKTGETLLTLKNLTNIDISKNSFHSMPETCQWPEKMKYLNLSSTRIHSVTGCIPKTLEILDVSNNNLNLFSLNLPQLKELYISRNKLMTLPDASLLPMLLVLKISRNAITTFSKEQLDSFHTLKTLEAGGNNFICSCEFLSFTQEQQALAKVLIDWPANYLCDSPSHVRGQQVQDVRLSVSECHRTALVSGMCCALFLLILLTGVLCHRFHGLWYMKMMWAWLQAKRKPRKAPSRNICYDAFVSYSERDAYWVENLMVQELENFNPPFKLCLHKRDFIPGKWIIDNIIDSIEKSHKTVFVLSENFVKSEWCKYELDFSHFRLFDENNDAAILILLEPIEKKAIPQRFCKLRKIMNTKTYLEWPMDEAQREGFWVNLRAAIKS

A word on the IC50: it is the concentration that gives 50% inhibition. For `COc1cc(-c2cnn(-c3ccccc3)c2)cc(C=O)c1O` [Compound A1, 2-hydroxy-3-methoxy-5-(1-phenyl-1H-pyrazol-4-yl)benzaldehyde], the IC50 at human TLR9 was about 2 µM; at human TLR2 [1] it was 0.9 µM; at human TLR2 [2], 2.2 µM.

As to `COc1cc(-c2cnn(CCN3CCOCC3)c2)cc(C=O)c1O` [Compound A2, 2-hydroxy-3-methoxy-5-(1-(2-morpholinoethyl)-1H-pyrazol-4-yl)benzaldehyde], the IC50 is over 33 µM on human TLR9, over 100 µM at human TLR2 [1] and over 100 µM at human TLR2 [2].

In the case of `COCCCn1cc(-c2cc(C=O)c(O)c(OC)c2)cn1` [Compound A7, 2-hydroxy-3-methoxy-5-(1-(3-methoxypropyl)-1H-pyrazol-4-yl)benzaldehyde], the figures for the IC50 on human TLR9, at human TLR2 [1] and on human TLR2 [2] were over 33 µM, 42.3 µM and 36.8 µM, respectively.

In the case of `COc1cc(-c2cnn(Cc3ccccn3)c2)cc(C=O)c1O` [Compound A8, 2-hydroxy-3-methoxy-5-(1-(pyridin-2-ylmethyl)-1H-pyrazol-4-yl)benzaldehyde], the figures for the IC50 on human TLR9, at human TLR2 [1] and at human TLR2 [2] were over 33 µM, over 100 µM and 85.5 µM, respectively.

Regarding `Cc1cc(-c2cnn(-c3ccccc3)c2)cc(C#N)c1O` [Compound A12, 2-hydroxy-3-methyl-5-(1-phenyl-1H-pyrazol-4-yl)benzonitrile], the IC50 on human TLR9 was over 33 µM; at human TLR2 [1] it was over 100 µM; at human TLR2 [2], over 100 µM.

Turning to `Oc1cc(-c2cnn(-c3ccccc3)c2)cc(F)c1F` [Compound A13, 2,3-difluoro-5-(1-phenyl-1H-pyrazol-4-yl)phenol], the results for the IC50 on human TLR9, at human TLR2 [1] and at human TLR2 [2] were over 33 µM, 39.7 µM and 45.7 µM, respectively.

For the molecule `Cc1cc(-c2cnn(-c3ccccc3)c2)cc(O)c1F` [Compound A14, 2-fluoro-3-methyl-5-(1-phenyl-1H-pyrazol-4-yl)phenol], the IC50 at human TLR9 is over 33 µM; at human TLR2 [1] it was 42.6 µM; on human TLR2 [2], 42.2 µM.

Regarding `Oc1c(F)cc(-c2cnn(-c3ccccc3)c2)cc1Cl` [Compound A15, 2-chloro-6-fluoro-4-(1-phenyl-1H-pyrazol-4-yl)phenol], the IC50 on human TLR9 was over 33 µM; at human TLR2 [1], over 100 µM; on human TLR2 [2], over 100 µM.

As for `COc1cc(-c2cnn(-c3ccccc3)c2)cc(O)c1F` [Compound A16, 2-fluoro-3-methoxy-5-(1-phenyl-1H-pyrazol-4-yl)phenol], the figures for the IC50 on human TLR9, at human TLR2 [1] and at human TLR2 [2] were over 33 µM, over 100 µM and over 100 µM, respectively.

Take `O=Cc1cc(-c2cnn(-c3ccc(N4CCCC4)cc3)c2)cc(F)c1O` [Compound A19, 3-fluoro-2-hydroxy-5-(1-(4-(pyrrolidin-1-yl)phenyl)-1H-pyrazol-4-yl)benzaldehyde]: the IC50 is under 1.2 µM on human TLR9, 0.5 µM on human TLR2 [1] and 0.5 µM on human TLR2 [2].

For `O=Cc1cc(-c2cnn(-c3cccc(N4CCCC4)c3)c2)cc(F)c1O` [Compound A22, 3-fluoro-2-hydroxy-5-(1-(3-(pyrrolidin-1-yl)phenyl)-1H-pyrazol-4-yl)benzaldehyde], the results for the IC50 at human TLR9, at human TLR2 [1] and at human TLR2 [2] were over 10 µM, 0.9 µM and 0.9 µM, respectively.

Consider `COc1cc(-c2ccn(-c3ccccc3)n2)cc(C=O)c1O` [Compound A25, 2-hydroxy-3-methoxy-5-(1-phenyl-1H-pyrazol-3-yl)benzaldehyde], for which the results for the IC50 at human TLR9, at human TLR2 [1] and on human TLR2 [2] were about 3 µM, 1.2 µM and 1.9 µM, respectively.

Turning to `O=Cc1cc(-c2ccn(-c3ccccc3)n2)cc(F)c1O` [Compound A26, 3-fluoro-2-hydroxy-5-(1-phenyl-1H-pyrazol-3-yl)benzaldehyde], the figures for the IC50 at human TLR9, at human TLR2 [1] and on human TLR2 [2] were about 3 µM, 2.7 µM and 2.9 µM, respectively.

With `O=Cc1cc(-c2ccn(-c3ccc(N4CCCC4)cc3)n2)cc(F)c1O` [Compound A27, 3-fluoro-2-hydroxy-5-(1-(4-(pyrrolidin-1-yl)phenyl)-1H-pyrazol-3-yl)benzaldehyde], the IC50 on human TLR9 was under 1.2 µM; on human TLR2 [1] it was 0.8 µM; on human TLR2 [2] it was 0.9 µM.

As to `CN1CCN(/N=C/c2cc(-c3ccn(-c4ccccc4)n3)cc(F)c2O)CC1` [Compound A33, (E)-2-fluoro-6-(((4-methylpiperazin-1-yl)imino)methyl)-4-(1-phenyl-1H-pyrazol-3-yl)phenol], the IC50 was about 4 µM at human TLR9, 3.6 µM on human TLR2 [1] and 4 µM at human TLR2 [2].

Turning to `O=Cc1cc(-n2cc(-c3ccc(N4CCCC4)cc3)nn2)cc(F)c1O` [Compound A42, 3-fluoro-2-hydroxy-5-(4-(4-(pyrrolidin-1-yl)phenyl)-1H-1,2,3-triazol-1-yl)benzaldehyde], the IC50 at human TLR9 is 0.1 µM; on human TLR2 [1], 0.3 µM; at human TLR2 [2], 0.4 µM.

Regarding `O=Cc1cc(-c2cn(-c3ccc(N4CCCC4)cc3)nn2)cc(F)c1O` [Compound A43, 3-fluoro-2-hydroxy-5-(1-(4-(pyrrolidin-1-yl)phenyl)-1H-1,2,3-triazol-4-yl)benzaldehyde], the IC50 was under 1.2 µM at human TLR9, 1.1 µM on human TLR2 [1] and 1.1 µM on human TLR2 [2].

On to `O=Cc1cc(-n2cc(-c3cccc(N4CCCC4)c3)nn2)cc(F)c1O` [Compound A44, 3-fluoro-2-hydroxy-5-(4-(3-(pyrrolidin-1-yl)phenyl)-1H-1,2,3-triazol-1-yl)benzaldehyde], for which the values for the concentration for half-maximal inhibition (IC50) at human TLR9, on human TLR2 [1] and on human TLR2 [2] were about 1.2 µM, 0.7 µM and 1 µM, respectively.

Turning to `O=Cc1cc(-c2cn(-c3ccc(N4CCCC4)cc3)cn2)cc(F)c1O` [Compound A47, 3-fluoro-2-hydroxy-5-(1-(4-(pyrrolidin-1-yl)phenyl)-1H-imidazol-4-yl)benzaldehyde], the IC50 on human TLR9 is under 1.2 µM; at human TLR2 [1], 1.3 µM; on human TLR2 [2], 2.3 µM.

As to `O=Cc1cc(-c2cc(-c3ccc(N4CCCC4)cc3)cs2)cc(F)c1O` [Compound A51, 3-fluoro-2-hydroxy-5-(4-(4-(pyrrolidin-1-yl)phenyl)thiophen-2-yl)benzaldehyde], the IC50 was under 1.2 µM at human TLR9, 0.7 µM at human TLR2 [1] and 1.7 µM at human TLR2 [2].
